Measured values reported in ChEMBL document CHEMBL1141346, “Psammaplysenes C and D, cytotoxic alkaloids from Psammoclemma sp” (J Nat Prod, 2007).

What was measured:
[1] = biological target: T1, P2X purinoceptor 7 (Homo sapiens) (UniProt Q99572); test: Antagonist activity at P2X7 receptor expressed in human THP1 cells after 90 mins; assay type: functional, cell-based; parameters: scale not given: the % may be the effect or the level left; conditions: THP-1
T1 sequence (whole entry): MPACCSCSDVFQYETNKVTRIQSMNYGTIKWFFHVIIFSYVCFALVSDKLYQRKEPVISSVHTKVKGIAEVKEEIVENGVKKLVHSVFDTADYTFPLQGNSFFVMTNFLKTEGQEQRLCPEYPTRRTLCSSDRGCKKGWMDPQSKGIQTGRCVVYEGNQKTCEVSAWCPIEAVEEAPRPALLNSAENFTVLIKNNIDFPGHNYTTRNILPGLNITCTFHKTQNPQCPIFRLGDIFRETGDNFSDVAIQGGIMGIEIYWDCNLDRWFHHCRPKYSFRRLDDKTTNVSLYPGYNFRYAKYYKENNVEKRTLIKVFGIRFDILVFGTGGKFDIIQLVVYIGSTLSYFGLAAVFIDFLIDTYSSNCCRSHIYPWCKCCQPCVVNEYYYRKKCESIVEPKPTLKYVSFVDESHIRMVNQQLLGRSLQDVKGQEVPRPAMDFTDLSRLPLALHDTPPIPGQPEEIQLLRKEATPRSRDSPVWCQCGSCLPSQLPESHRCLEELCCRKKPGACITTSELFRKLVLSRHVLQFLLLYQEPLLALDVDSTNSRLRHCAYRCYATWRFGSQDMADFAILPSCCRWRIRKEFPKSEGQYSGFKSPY

THP-1 = test: Cytotoxicity against human THP1 cells expressing P2X7 receptor after 21 hrs by Almar blue cytotoxicity assay; assay type: functional, cell-based; conditions: THP-1, 21 h

Activity [1] | Compound | IC50 (THP-1)
44% | CN(C)CCCOc1ccc(/C=C/C(=O)N(C)CCCOc2c(Br)cc(CCN(C)C)cc2Br)cc1Br [PSAMMAPLYSENE C] | 7 µM
72% | CN(C)CCCOc1c(Br)cc(/C=C/C(=O)N(C)CCCOc2c(Br)cc(CCN(C)C)cc2Br)cc1Br [PSAMMAPLYSENE D] | 7 µM
